Data reported in US20200352950A1, “Novel method of treating dystonia” (KOREA ADVANCED INSTITUTE OF SCIENCE AND TECHNOLOGY, priority 2017, published 2020).
“Also recorded” adds a separate entry of the source.

Assays:
5-HT2A receptor = 5-HT2A receptor (Homo sapiens, UniProt P28223); conditions: cited from earlier work
[1] = system: CACNA1Atot/tot mice (tottering mice); assay: Stress-induced dystonia in tottering mice in open field box (attack event number, dystonia score); type: in vivo; conditions: for degree of relaxation of dystonia (number of dystonia events, dystonia score): FIGS. 3B, 3C, i.p., MDL100907 1 or 2 mg/kg, pimavanserin 1.5 mg/kg, ritanserin 2 mg/kg, glemanserin 2 mg/kg, nelotanserin 1 mg/kg, compared to the control group; for dystonia symptoms, dose-dependent effect: FIG. 3A
[2] = system: CACNA1Atot/tot mice (tottering mice); assay: EMG cross correlation between tibialis anterior and gastrocnemius muscles of tottering mice; type: in vivo; conditions: FIG. 1G; stressed environment; compared to control group
Source text: Electrodes (A-M system, USA) were surgically inserted into the gastrocnemius (GS) and tibialis anterior (TA) muscle for EMG recording, respectively. The electrodes were made using multiple strands of stainless-steel wires attached to each other and coated with Teflon. After shaving the hair of the right hind leg and behind the neck, a small incision was formed in the skin of the dorsal neck area. Four sets of recording electrodes were connected from the neck incision to the muscles under the skin. The EMG wires were wired under the skin and connected to a connector fixed to the skull. The low impedance of the exposed end of the wires allows the capture of electrical signals that have passed through relatively long distances (Pearson et al., J. Neurosci. Methods, 148 (1): 36-42, 2005). The EMG signals from the electrodes were sampled at 10 kHz and digitized with MiniDigi 1A (Axon Instrument, USA). Raw traces were analyzed using Clampfit 9.2 (Axon Instrument, USA). The cross correlation was calculated by using the standard of NeuroExplorer (Ver. 4, Nex Technologies, USA). […] The cross correlation indicates the degree of EMG overlap for a certain period in two muscles (TA and GS), and is a measure for judging whether the dystonia symptoms occur simultaneously in two muscles. […] That is, the greater the cross correlation value (Cross Corr.), which is the Y-axis value when the signal between each other is 0 ms (when contracted at the same time), the more severe the dystonia symptoms that the two muscles contract at the same time. The unit of the Y axis, AU, is a relative cross correlation value when the control is set to 1 which is an arbitrary unit.

[3] = system: calcium ion concentration in the cerebellum; assay: Real-time GCaMP6 fluorescence measurement of calcium ion concentration in the cerebellum of tottering mice; type: in vivo; conditions: FIG. 4E; stress environment
Procedure: In order to analyze the correlation between the degree of dystonia symptoms and the concentration of calcium ions in neurons, optogenetic model animals were prepared. Particularly, for a photometric system with a polarization-maintaining single-mode optical fiber, AAV2/9-CAG-FLEX-GCaMP6m (zadmehr et al., Cell, 164: 617-631, 2016) and AAV2/9-CMV-Cre (Gompf et al., Front. Behav. Neurosci. 9: 152, 2015) viral vectors were injected unilaterally into 0.25 μl each of the fastigial nucleus of the CACNA1A^tot/tot mouse through stereotaxic surgery. The virus injection was carried out 4 weeks before the experiment. […] For the fluorescence measurement, a TCSPC-based light measurement system (Becker & Hickel, Germany) was used.
The change in calcium signaling in the cerebellum is possible by transduction of a gene encoding the calcium sensor protein GCaMP6 into the cerebellum of the dystonia model mouse, and then measuring the intensity of fluorescence of the GCaMP6 protein bound to calcium ions. […] The present inventors performed real-time fluorescence analysis to analyze the correlation between dystonia symptoms and calcium ion concentration in nerve tissues in the topical transduction tottering mice prepared in Example 2. […] After the pulse laser irradiation, 509 nm wavelength fluorescence was measured using a TCSPC-based optical measurement system (Becker & Hickl, Germany). […]

[4] = system: CACNA1Atot/tot mice (tottering mice); assay: Stress-induced dystonia in tottering mice in open field box (attack event number, dystonia score); type: in vivo; conditions: FIG. 1F; i.p. 30 min before test; Way100135 10 mg/kg, MDL100907 1 mg/kg, ondansetron 1 mg/kg; open field box 30 min
Procedure: The 7-8 weeks old CACNA1Atot/tot mice (Fletcher, Cell, 87 (4): 607-617, 1996, The Jackson Laboratory, Stock No: 000544) were selected kept and dealt complied with the regulation (protocol number KA2015-05) of Institutional Animal Care and Use Committee of the Korea Advanced Institute of Science and Technology (KAIST). The mice remained freely accessible to water and feed, and the light-dark cycle was 12/12 hours. Behavioral tests were performed 4 weeks after the viral transduction. […]
The drugs were dissolved in physiological saline and administrated […] to the tottering animal prepared by the Examples 2 and kept in the controlled environment of 12/12 hour light-dark cycle. […] The behavior test was performed 30 minutes after drug administration, and the experimental animals were acclimated in the home for 30 minutes and moved to an open field box, they were exposed to a stressed environment by leaving them in the open field box for 30 min, and the symptoms of dystonia were measured. The symptoms of dystonia and its severity were calculated using a 5-point scale dystonia score as follows: 0=normal behavior, 1=abnormal motor behavior, no myotonic posture, 2=minor dyskinesia, showing dystonia-like psture when disturbed, 3=moderate motor disability, frequent spontaneous myotonic posture, 4=severe motor disability, and persistent myotonic posture.

Chain of 5-HT2A receptor (P28223 whole entry): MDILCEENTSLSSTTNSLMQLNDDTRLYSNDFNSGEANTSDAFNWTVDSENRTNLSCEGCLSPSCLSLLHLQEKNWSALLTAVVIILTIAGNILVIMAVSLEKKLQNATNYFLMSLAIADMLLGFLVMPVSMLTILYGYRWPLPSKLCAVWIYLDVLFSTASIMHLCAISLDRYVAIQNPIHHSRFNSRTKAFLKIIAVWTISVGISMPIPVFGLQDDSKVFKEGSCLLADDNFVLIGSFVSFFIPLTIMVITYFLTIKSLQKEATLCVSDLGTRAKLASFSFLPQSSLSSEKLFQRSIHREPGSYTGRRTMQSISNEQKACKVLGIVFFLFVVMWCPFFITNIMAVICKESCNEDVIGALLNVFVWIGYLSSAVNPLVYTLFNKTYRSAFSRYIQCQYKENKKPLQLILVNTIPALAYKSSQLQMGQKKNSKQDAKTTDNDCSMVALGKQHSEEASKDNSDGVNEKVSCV

Row | Compound | Ki (5-HT2A receptor; 5-HT2A receptor) [nM] | degree of relaxation of dystonia (number of dystonia events, dystonia score) [1] | EMG cross correlation (TA and GS muscles) [2] | other results
1 | COc1ccc(CC(=O)N(Cc2ccc(C)cc2)C2CCN(C)CC2)cc1 [AC-90179] | 2.1 ± 0.2 | – | – | –
2 | OC(c1ccccc1)C1CCN(CCc2ccccc2)CC1 (stereo not shown) [Glemanserin] | – | showed no significant effect | – | IC50 (5-HT2A receptor): 6.5 ± 2 nM
3 | OCCOCCN1CCN(C(c2ccccc2)c2ccc(Cl)cc2)CC1 (stereo not shown) [Hydroxyzine] | – | – | – | IC50 (5-HT2A receptor): 170 nM
4 | COc1ccc(NC(=O)Nc2ccc(F)cc2F)cc1-c1c(Br)cnn1C [Nelotanserin] | 0.4 ± 0.07 | showed no dystonia paralysis | – | –
5 | CC(CCN1CCN(c2ccc(F)cc2)CC1)NC(=O)c1cccnc1 (stereo not shown) [Niaprazine] | 75 | – | – | pKi (5-HT2A receptor; 5-HT2A receptor): 7.61 ± 0.18
6 | CC(C)COc1ccc(CNC(=O)N(Cc2ccc(F)cc2)C2CCN(C)CC2)cc1 [Pimavanserin] | – | showed no dystonia paralysis; also recorded: reduced symptoms of dystonia compared to Glemanserin | – | –
7 | Cc1nc2sccn2c(=O)c1CCN1CCC(=C(c2ccc(F)cc2)c2ccc(F)cc2)CC1 [Ritanserin] | – | showed no dystonia paralysis | – | –
8 | COc1cccc([C@H](O)C2CCN(CCc3ccc(F)cc3)CC2)c1OC [Volinanserin] | – | showed no dystonia paralysis; also recorded: reduced symptoms of dystonia compared to Glemanserin | the correlation disappeared | dystonia symptoms, dose-dependent effect ([1]; 0.1 mg/kg): dystonia symptoms were significantly suppressed; dystonia symptoms, dose-dependent effect ([1]; 2 mg/kg rather than 1 mg/kg): symptoms were slightly alleviated; increase in GCaMP6 fluorescence signal (ΔF/F) in cerebellum after moving to open field box [3]: reduced to the level when staying at the home
9 | COc1ccccc1N1CCN(CC(C(=O)NC(C)(C)C)c2ccccc2)CC1 (stereo not shown) [Way100135] | – | – | there is no difference | symptoms of dystonia (attack event number and muscle dysfunction index) [4]: did not reduce symptoms of dystonia at all
10 | Cc1nccn1CC1CCc2c(c3ccccc3n2C)C1=O (stereo not shown) [ondansetron] | – | – | there is no difference | symptoms of dystonia (attack event number and muscle dysfunction index) [4]: did not reduce symptoms of dystonia at all
